Reference: patent US20120115724A1, “METHOD OF CONTROLLING UNDESIRED VEGETATION” (SYNGENTA CROP PROTECTION LLC, priority 2009, published 2012)

Key:
Type in all cases: in vivo
SINAR Sinapis arvensis [1] = assay: Pre-emergence crop and weed test (Example 16); details: after 20 days
Method: (§1) Seeds of crop and representative weed species were sown in standard soil in pots. After cultivation for 1 day under controlled conditions in a glasshouse (at 22/16° C., day/night; 16 hours light; 65% humidity), the plants were sprayed. The spray solution was prepared by dissolving the technical active ingredient in acetone containing 10.56 wt % Emulsogen EL, 42.22 wt % N-methylpyrrolidone and 2.22 wt % DPG-monoethyl ether to give a 5% stock solution. This was then diluted with water containing 0.2% (v/v) of the adjuvant X-77 to give the desired treatment concentration.
(§2) The test plants were then grown on under controlled conditions in a glasshouse (at 22/16° C., day/night; 16 hours light; 65% humidity) and watered twice daily. After 20 days the test was evaluated (100=total damage to plant; 0=no damage to plant).
(§3) Species as for Post-Emergence Test.

[2] = system: XANST Xanthium strumarium; assay: Pre-emergence crop and weed test (Example 16); details: after 20 days
Method: as §1, §2, §3

[3] = system: AMARE Amaranthus retroflexus; assay: Pre-emergence crop and weed test (Example 16); details: after 20 days
Method: as §1, §2, §3

[4] = system: ABUTH Abutilon theophrasti; assay: Pre-emergence crop and weed test (Example 16); details: after 20 days
Method: as §1, §2, §3

CHEAL Chenopodium album [5] = assay: Pre-emergence crop and weed test (Example 16); details: after 20 days
Method: as §1, §2, §3

IPOHE Ipomoea hederacea [6] = assay: Pre-emergence crop and weed test (Example 16); details: after 20 days
Method: as §1, §2, §3

[7] = system: EPHHL Euphorbia heterophylla; assay: Pre-emergence crop and weed test (Example 16); details: after 20 days
Method: as §1, §2, §3

GLXMA Soybean [8] = assay: Pre-emergence crop and weed test (Example 16); details: after 20 days
Method: as §1, §2, §3

GALAP Galium aparine [9] = assay: Pre-emergence crop and weed test (Example 16); details: after 20 days
Method: as §1, §2, §3

[10] = system: POLCO Polygonum convolvulus; assay: Pre-emergence crop and weed test (Example 16); details: after 20 days
Method: as §1, §2, §3

KCHSC Kochia scoparia [11] = assay: Pre-emergence crop and weed test (Example 16); details: after 20 days
Method: as §1, §2, §3

SIDSP Sida spinosa [12] = assay: Pre-emergence crop and weed test (Example 16); details: after 20 days
Method: as §1, §2, §3

VERPE Veronica persica = assay: Post-emergence crop and weed test (Example 15); details: 360 h, after 15 days, read-out: Percentage damage VERPE
In short: (§4)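 Scoring: percent damage at 15 days after treatment, where 100 means total damage and 0 no damage. Treatment was a foliar spray of 14-day-old potted plants, using active ingredient diluted from a 5% acetone-based emulsifiable stock into water containing 0.2% X-77 adjuvant.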

SINAR Sinapis arvensis [13] = assay: Post-emergence crop and weed test (Example 15); details: Mutarda arvensis, 360 h, after 15 days, read-out: Percentage damage SINAR
In short: as §4

[14] = system: XANST Xanthium strumarium; assay: Post-emergence crop and weed test (Example 15); details: 360 h, after 15 days, read-out: Percentage damage XANST
In short: as §4

[15] = system: AMARE Amaranthus retroflexus; assay: Post-emergence crop and weed test (Example 15); details: 360 h, after 15 days, read-out: Percentage damage AMARE
In short: as §4

[16] = system: ABUTH Abutilon theophrasti; assay: Post-emergence crop and weed test (Example 15); details: 360 h, after 15 days, read-out: Percentage damage ABUTH
In short: as §4

CHEAL Chenopodium album [17] = assay: Post-emergence crop and weed test (Example 15); details: 360 h, after 15 days, read-out: Percentage damage CHEAL
In short: as §4

IPOHE Ipomoea hederacea [18] = assay: Post-emergence crop and weed test (Example 15); details: 360 h, after 15 days, read-out: Percentage damage IPOHE
In short: as §4

[19] = system: EPHHL Euphorbia heterophylla; assay: Post-emergence crop and weed test (Example 15); details: 360 h, after 15 days, read-out: Percentage damage EPHHL
In short: as §4

GLXMA Soybean [20] = assay: Post-emergence crop and weed test (Example 15); details: Glycine max, 360 h, after 15 days, read-out: Percentage damage GLXMA
In short: as §4

GALAP Galium aparine [21] = assay: Post-emergence crop and weed test (Example 15); details: 360 h, after 15 days, read-out: Percentage damage GALAP
In short: as §4

[22] = system: POLCO Polygonum convolvulus; assay: Post-emergence crop and weed test (Example 15); details: Fallopia convolvulus, 360 h, after 15 days, read-out: Percentage damage POLCO
In short: as §4

KCHSC Kochia scoparia [23] = assay: Post-emergence crop and weed test (Example 15); details: Bassia scoparia, 360 h, after 15 days, read-out: Percentage damage KCHSC
In short: as §4

SIDSP Sida spinosa [24] = assay: Post-emergence crop and weed test (Example 15); details: 360 h, after 15 days, read-out: Percentage damage SIDSP
In short: as §4

COC(=O)c1nc(-c2ccc(Cl)c(OC)c2F)nc(NCc2ccco2)c1Cl [Ref. Ex. E, 5-Chloro-2-(4-chloro-2-fluoro-3-methoxyphenyl)-4-(furan-2-ylmethylamino)-6-methoxycarbonyl-pyrimidine, reference compound]
Percentage damage SINAR (SINAR Sinapis arvensis [1]; 125 g/ha): 70% | Percentage damage XANST ([2]; 125 g/ha): 20% | Percentage damage AMARE ([3]; 125 g/ha): 70% | Percentage damage ABUTH ([4]; 125 g/ha): 40% | Percentage damage CHEAL (CHEAL Chenopodium album [5]; 125 g/ha): 30% | Percentage damage IPOHE (IPOHE Ipomoea hederacea [6]; 125 g/ha): 30% | Percentage damage EPHHL ([7]; 125 g/ha): 100% | Percentage damage GLXMA (GLXMA Soybean [8]; 125 g/ha): 10% | Percentage damage GALAP (GALAP Galium aparine [9]; 125 g/ha): 90% | Percentage damage POLCO ([10]; 125 g/ha): 0% | Percentage damage KCHSC (KCHSC Kochia scoparia [11]; 125 g/ha): 60% | Percentage damage SIDSP (SIDSP Sida spinosa [12]; 125 g/ha): 70% | pest or weed control at 125 g/ha (VERPE Veronica persica; 125 g/ha): 10% | pest or weed control at 125 g/ha (SINAR Sinapis arvensis [13]; 125 g/ha): 90% | pest or weed control at 125 g/ha ([14]; 125 g/ha): 100% | pest or weed control at 125 g/ha ([15]; 125 g/ha): 100% | pest or weed control at 125 g/ha ([16]; 125 g/ha): 100% | pest or weed control at 125 g/ha (CHEAL Chenopodium album [17]; 125 g/ha): 90% | pest or weed control at 125 g/ha (IPOHE Ipomoea hederacea [18]; 125 g/ha): 90% | pest or weed control at 125 g/ha ([19]; 125 g/ha): 100% | plant injury at 125 g/ha (GLXMA Soybean [20]; 125 g/ha): 100% | pest or weed control at 125 g/ha (GALAP Galium aparine [21]; 125 g/ha): 90% | pest or weed control at 125 g/ha ([22]; 125 g/ha): 90% | pest or weed control at 125 g/ha (KCHSC Kochia scoparia [23]; 125 g/ha): 90% | pest or weed control at 125 g/ha (SIDSP Sida spinosa [24]; 125 g/ha): 90%

C=Cc1c(N)nc(-c2ccc(Cl)c(OC)c2F)nc1C(=O)OC [Compound 2, 4-Amino-2-(4-chloro-2-fluoro-3-methoxy-phenyl)-5-ethenyl-6-methoxy-carbonyl-pyrimidine]
Percentage damage SINAR (SINAR Sinapis arvensis [1]; 15 g/ha): 30% | Percentage damage XANST ([2]; 15 g/ha): 0% | Percentage damage AMARE ([3]; 15 g/ha): 40% | Percentage damage ABUTH ([4]; 15 g/ha): 40% | Percentage damage CHEAL (CHEAL Chenopodium album [5]; 15 g/ha): 70% | Percentage damage IPOHE (IPOHE Ipomoea hederacea [6]; 15 g/ha): 30% | Percentage damage EPHHL ([7]; 15 g/ha): 100% | Percentage damage GLXMA (GLXMA Soybean [8]; 15 g/ha): 20% | Percentage damage GALAP (GALAP Galium aparine [9]; 15 g/ha): 100% | Percentage damage POLCO ([10]; 15 g/ha): 20% | Percentage damage KCHSC (KCHSC Kochia scoparia [11]; 15 g/ha): 100% | Percentage damage SIDSP (SIDSP Sida spinosa [12]; 15 g/ha): 80% | pest or weed control at 8 g/ha (SINAR Sinapis arvensis [13]): 10% | pest or weed control at 8 g/ha [14]: 90% | pest or weed control at 8 g/ha [15]: 80% | pest or weed control at 8 g/ha [16]: 80% | pest or weed control at 8 g/ha (IPOHE Ipomoea hederacea [18]): 90% | pest or weed control at 8 g/ha [19]: 90% | plant injury at 8 g/ha (GLXMA Soybean [20]): 60% | pest or weed control at 8 g/ha (GALAP Galium aparine [21]; 8 g/ha): 80% | pest or weed control at 8 g/ha [22]: 70% | pest or weed control at 8 g/ha (KCHSC Kochia scoparia [23]): 30% | pest or weed control at 8 g/ha (SIDSP Sida spinosa [24]): 80%

COC(=O)c1nc(-c2ccc(Cl)c(OC)c2F)nc(N)c1Cl [Ref. Ex. B, 4-Amino-5-chloro-2-(4-chloro-2-fluoro-3-methoxyphenyl)-6-methoxycarbonyl-pyrimidine, reference compound]
Percentage damage SINAR (SINAR Sinapis arvensis [1]; 15 g/ha): 80% | Percentage damage XANST ([2]; 15 g/ha): 0% | Percentage damage AMARE ([3]; 15 g/ha): 70% | Percentage damage ABUTH ([4]; 15 g/ha): 30% | Percentage damage CHEAL (CHEAL Chenopodium album [5]; 15 g/ha): 30% | Percentage damage IPOHE (IPOHE Ipomoea hederacea [6]; 15 g/ha): 0% | Percentage damage EPHHL ([7]; 15 g/ha): 80% | Percentage damage GLXMA (GLXMA Soybean [8]; 15 g/ha): 90% | Percentage damage GALAP (GALAP Galium aparine [9]; 15 g/ha): 70% | Percentage damage POLCO ([10]; 15 g/ha): 0% | Percentage damage KCHSC (KCHSC Kochia scoparia [11]; 15 g/ha): 0% | Percentage damage SIDSP (SIDSP Sida spinosa [12]; 15 g/ha): 40% | pest or weed control at 8 g/ha (VERPE Veronica persica): 80% | pest or weed control at 8 g/ha (SINAR Sinapis arvensis [13]): 80% | pest or weed control at 8 g/ha [14]: 100% | pest or weed control at 8 g/ha [15]: 100% | pest or weed control at 8 g/ha [16]: 90% | pest or weed control at 8 g/ha (CHEAL Chenopodium album [17]): 80% | pest or weed control at 8 g/ha (IPOHE Ipomoea hederacea [18]): 80% | pest or weed control at 8 g/ha [19]: 100% | plant injury at 8 g/ha (GLXMA Soybean [20]): 90% | pest or weed control at 8 g/ha [22]: 80% | pest or weed control at 8 g/ha (SIDSP Sida spinosa [24]): 70%

C=Cc1c(N)nc(-c2ccc(Cl)c(OC)c2F)nc1C(=O)O [Compound 11, 4-amino-2-(4-chloro-2-fluoro-3-methoxyphenyl) -5-ethenylpyrimidine-6-carboxylic acid]
Percentage damage SINAR (SINAR Sinapis arvensis [1]; 250 g/ha): 70% | Percentage damage XANST ([2]; 250 g/ha): 70% | Percentage damage AMARE ([3]; 250 g/ha): 100% | Percentage damage ABUTH ([4]; 250 g/ha): 100% | Percentage damage CHEAL (CHEAL Chenopodium album [5]; 250 g/ha): 100% | Percentage damage IPOHE (IPOHE Ipomoea hederacea [6]; 250 g/ha): 100% | Percentage damage EPHHL ([7]; 250 g/ha): 100% | Percentage damage GLXMA (GLXMA Soybean [8]; 250 g/ha): 0% | Percentage damage POLCO ([10]; 250 g/ha): 20% | Percentage damage KCHSC (KCHSC Kochia scoparia [11]; 250 g/ha): 100% | Percentage damage SIDSP (SIDSP Sida spinosa [12]; 250 g/ha): 100% | pest or weed control at 8 g/ha (VERPE Veronica persica): 80% | pest or weed control at 8 g/ha (SINAR Sinapis arvensis [13]): 0% | pest or weed control at 8 g/ha [14]: 90% | pest or weed control at 8 g/ha [15]: 60% | pest or weed control at 8 g/ha [16]: 90% | pest or weed control at 8 g/ha (CHEAL Chenopodium album [17]): 80% | pest or weed control at 8 g/ha [19]: 90% | plant injury at 8 g/ha (GLXMA Soybean [20]): 0% | pest or weed control at 8 g/ha [22]: 70% | pest or weed control at 8 g/ha (KCHSC Kochia scoparia [23]): 10% | pest or weed control at 8 g/ha (SIDSP Sida spinosa [24]): 80%
